From article PMC3511273, “Identification of PPARgamma Partial Agonists of Natural Origin (I): Development of a Virtual Screening Procedure and In Vitro Validation” (PLoS ONE, 2012) come the findings set out here.

For one assay, the target named is T1, PPARγ ligand-binding domain (PPARγ LBD) (Homo sapiens, UniProt P37231).
T1 construct: gene PPARG
T1 sequence (P37231 238-505 limits assumed): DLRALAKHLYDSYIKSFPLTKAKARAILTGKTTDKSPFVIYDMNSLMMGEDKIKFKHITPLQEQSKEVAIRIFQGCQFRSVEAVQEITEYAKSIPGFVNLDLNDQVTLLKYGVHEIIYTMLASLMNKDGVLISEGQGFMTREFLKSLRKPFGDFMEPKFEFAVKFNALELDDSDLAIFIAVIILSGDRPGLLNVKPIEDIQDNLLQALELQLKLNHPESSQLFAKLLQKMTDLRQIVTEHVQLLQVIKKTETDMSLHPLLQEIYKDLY
Put plainly: fluorescence polarization competition (PolarScreen PPARγ Competitor Assay Green). As to conditions: displacement of fluorescent PPARγ ligand; ex 485 nm, em 535 nm; unreliable. In general terms: Fluorescence polarisation rises when a labelled molecule tumbles more slowly, as on binding a larger partner.
Compound `Cc1ccc(C2(CC(=O)O)CCOC(C)(C)C2)cc1` (stereo not drawn) [C2, ZINC00201868] displayed an IC50 above 8000 µM.
Still for that read-out and setting: then `COc1ccc(C(O)=C2C(=O)C(=O)N(Cc3cccnc3)C2c2ccc(O)cc2)c(C)c1` (stereo not drawn) [C3, ZINC00914339], with above 8000 µM; and `Cc1oc2c(C)c3oc(=O)c(CC(=O)N4CCC(C(=O)O)CC4)c(C)c3cc2c1C` [C6, ZINC02156886], with above 8000 µM.

Still in this assay, the particulars now being: read-out: Binding affinityIC50.
As to `C=C(C)COc1ccc2oc(-c3ccccc3)c(C(=O)O)c2c1` [C1, ZINC00083676], the IC50 came out at 12.4 µM.
As to `CC(C)C(NC(=O)C(Cc1ccccc1)n1c(=O)[nH]c2ccccc2c1=O)C(=O)O` (stereo not drawn) [C5, ZINC02128851], the IC50 is 1000 µM.
In the case of `Cc1ccc(C(c2ccc(C)o2)c2ccccc2C(=O)O)o1` [C7, ZINC03846929], the IC50 is 252 µM.
Take `Cc1cc(C)c2c(O)nn(C3CCOC(C)(C)C3)c2n1` (stereo not drawn) [C8, ZINC04040746]: the IC50 was determined as 460 µM.
The same measure, in the same setting: the value for `CC1(C)SC2c3ccccc3C(=O)N2C1C(=O)NC(Cc1ccccc1)C(=O)O` (stereo not drawn) [C9, ZINC04085288] was 585 µM.
Same read-out and setting: the value for `CC(C)C[C@H](NC(=O)OCC1c2ccccc2-c2ccccc21)C(=O)O` [FMOC, reference compound] was 18.5 µM.
